According to US20230312550A1, “N-(2-(4-CYANOTHIAZOLIDIN-3-YL)-2-OXOETHYL)-QUINOLINE-4-CARBOXAMIDES” (AstraZeneca AB, priority 2020, published 2023):
≈ marks a conversion by molar mass, not a printed value.

Tests used:
[1] = Metabolic stability in human liver microsomes (HLM); details: human
Description: Metabolic stability in HLM was measured as described in J Comput Aided Mol Des 2015, 29, 795.

[2] = target: Prolyl endopeptidase, Prolyl Oligopeptidase (hPREP) (Homo sapiens (Human), UniProt P48147); assay: hPrep inhibition assay; format: biochemical; details: hPREP 0.6 nM, Z-Gly-Pro-amino-methylcoumarin 50 μM; read-out: PREP IC50
Sequence of Prolyl endopeptidase, Prolyl Oligopeptidase (hPREP) (P48147 whole entry): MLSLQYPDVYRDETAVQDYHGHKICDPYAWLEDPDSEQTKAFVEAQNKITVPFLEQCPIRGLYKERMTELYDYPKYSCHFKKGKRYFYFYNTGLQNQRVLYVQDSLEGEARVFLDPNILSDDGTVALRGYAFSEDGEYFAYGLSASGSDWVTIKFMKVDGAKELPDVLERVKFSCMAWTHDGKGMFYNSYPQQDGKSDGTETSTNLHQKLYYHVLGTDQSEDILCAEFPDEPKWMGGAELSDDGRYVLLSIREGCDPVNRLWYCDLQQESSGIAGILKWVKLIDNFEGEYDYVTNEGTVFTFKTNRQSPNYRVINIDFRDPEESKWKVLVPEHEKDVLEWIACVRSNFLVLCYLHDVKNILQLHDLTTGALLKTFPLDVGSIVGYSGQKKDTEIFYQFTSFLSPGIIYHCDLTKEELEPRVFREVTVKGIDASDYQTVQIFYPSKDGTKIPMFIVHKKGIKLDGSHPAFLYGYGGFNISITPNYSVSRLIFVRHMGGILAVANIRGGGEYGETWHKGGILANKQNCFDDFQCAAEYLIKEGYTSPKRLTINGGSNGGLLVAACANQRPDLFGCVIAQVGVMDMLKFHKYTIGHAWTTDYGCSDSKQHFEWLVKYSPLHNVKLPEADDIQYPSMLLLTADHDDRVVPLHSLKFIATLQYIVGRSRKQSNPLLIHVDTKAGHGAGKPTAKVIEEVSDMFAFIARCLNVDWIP
Summary of the method: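 Recombinant human PREP at 0.6 nM final with Z-Gly-Pro-AMC substrate at 50 μM final in Tris-HCl pH 7.5, NaCl, Triton X-100, glutathione; 15 min rt preincubation then 20 min rt reaction in dark. AMC fluorescence (ex 340/em 460 nm); IC50 from one-site dose-response fit of % inhibition.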

[3] = Caco-2 cell permeability; details: human
Description: Caco-2 cell permeability was measured as described in Mol Pharm 2017, 14, 1601.

[4] = target: FAP (Mus musculus (Mouse), UniProt P97321); assay: FAP plasma inhibition assay, mouse plasma; format: biochemical; details: mouse plasma diluted 1:67, Ala-Pro-AMC 75 μM
Sequence of FAP (Mus musculus (Mouse), UniProt P97321) (P97321 24-761): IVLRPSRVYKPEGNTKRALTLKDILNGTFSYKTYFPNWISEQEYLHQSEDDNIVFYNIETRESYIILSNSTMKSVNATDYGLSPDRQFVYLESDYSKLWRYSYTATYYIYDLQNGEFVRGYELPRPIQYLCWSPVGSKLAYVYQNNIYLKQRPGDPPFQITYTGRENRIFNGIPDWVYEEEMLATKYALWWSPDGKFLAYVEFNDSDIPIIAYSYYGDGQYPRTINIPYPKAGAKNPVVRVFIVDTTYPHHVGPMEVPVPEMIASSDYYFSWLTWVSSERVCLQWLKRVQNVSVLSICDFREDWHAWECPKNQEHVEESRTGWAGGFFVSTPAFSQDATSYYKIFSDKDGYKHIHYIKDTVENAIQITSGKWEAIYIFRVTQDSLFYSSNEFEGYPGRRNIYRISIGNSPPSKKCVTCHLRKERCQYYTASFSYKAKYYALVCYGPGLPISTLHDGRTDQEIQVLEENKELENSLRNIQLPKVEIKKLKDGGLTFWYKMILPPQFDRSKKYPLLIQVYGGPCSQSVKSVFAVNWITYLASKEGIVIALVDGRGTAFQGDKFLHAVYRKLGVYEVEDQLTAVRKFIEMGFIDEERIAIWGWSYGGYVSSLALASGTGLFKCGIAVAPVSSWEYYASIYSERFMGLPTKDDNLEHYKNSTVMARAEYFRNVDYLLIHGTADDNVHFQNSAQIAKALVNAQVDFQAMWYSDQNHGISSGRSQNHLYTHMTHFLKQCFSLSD
Description: (§1) This assay was adapted from the method described in Example 237 for detection of FAP target engagement enzyme activity in plasma. Plasma (anticoagulant K2EDTA) was used as the enzyme source: Human plasma (Pooled from AZ Biobank), Mouse plasma (AZ AST Biobank), and Cynomolgus plasma (BioIVT, #NHP00PLK2FNN, lot CYN222895). 384-Well black fluotrack PS plates (Greiner 781076) were used. 20 μL diluted plasma (Cynomolgus and Human plasma dilution 1:40, Mouse plasma dilution 1:67) in buffer (PBS, 0.1% BSA) was added to 0.6 μL compounds (in DMSO). Compounds were tested using 10 CR, 3 fold dilution series from 500 nM FAC. Two replicates for each assay point were run on the same plate. A fluorescence blank read was taken before substrate addition. […] Plates were incubated for 40 min at rt in the dark. […] IC50 values were determined by plotting % inhibition versus log compound concentration.

[5] = target: human Fibroblast activation protein alpha (hFAP) (Homo sapiens (Human), UniProt Q12884); assay: hFAP inhibition assay (tight binders); format: biochemical; details: Ala-Pro-AMC 20 μM, n = 1 or geometric mean n = 2-6; further: hFAP 2.4 pM
Sequence of human Fibroblast activation protein alpha (hFAP) (Q12884 38-760): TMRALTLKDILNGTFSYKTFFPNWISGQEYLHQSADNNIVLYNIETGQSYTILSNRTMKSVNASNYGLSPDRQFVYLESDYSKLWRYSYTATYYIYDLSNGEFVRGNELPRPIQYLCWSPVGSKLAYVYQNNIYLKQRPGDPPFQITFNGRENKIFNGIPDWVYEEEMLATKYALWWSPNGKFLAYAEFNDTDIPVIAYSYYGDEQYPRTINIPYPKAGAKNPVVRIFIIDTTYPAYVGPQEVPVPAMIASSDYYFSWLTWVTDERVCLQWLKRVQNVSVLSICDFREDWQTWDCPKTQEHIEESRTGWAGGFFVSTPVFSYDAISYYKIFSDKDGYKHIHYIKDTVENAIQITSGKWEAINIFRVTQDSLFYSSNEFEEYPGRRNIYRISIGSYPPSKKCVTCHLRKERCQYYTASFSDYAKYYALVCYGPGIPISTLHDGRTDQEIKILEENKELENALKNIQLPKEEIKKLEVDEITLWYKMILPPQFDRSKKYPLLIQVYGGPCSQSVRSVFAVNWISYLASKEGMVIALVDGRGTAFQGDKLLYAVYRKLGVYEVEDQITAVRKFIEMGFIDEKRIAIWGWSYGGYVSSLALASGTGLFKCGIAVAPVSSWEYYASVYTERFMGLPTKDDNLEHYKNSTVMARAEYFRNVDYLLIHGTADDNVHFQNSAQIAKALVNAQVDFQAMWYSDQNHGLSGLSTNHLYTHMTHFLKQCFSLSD
Description: The plates were read on a PHERAstar® reader with excitation 340 nm and emission 460 nm. Data were analyzed in Genedata Screener®. IC50 values were determined by plotting % inhibition versus log compound concentration and using a one site dose response model.

[6] = target: T1, FAP (Homo sapiens (Human), UniProt Q12884); assay: FAP plasma inhibition assay, human plasma; format: biochemical; details: human plasma diluted 1:40, Ala-Pro-AMC 75 μM
Description: as §1
Target sequence in this assay (Q12884 24-760): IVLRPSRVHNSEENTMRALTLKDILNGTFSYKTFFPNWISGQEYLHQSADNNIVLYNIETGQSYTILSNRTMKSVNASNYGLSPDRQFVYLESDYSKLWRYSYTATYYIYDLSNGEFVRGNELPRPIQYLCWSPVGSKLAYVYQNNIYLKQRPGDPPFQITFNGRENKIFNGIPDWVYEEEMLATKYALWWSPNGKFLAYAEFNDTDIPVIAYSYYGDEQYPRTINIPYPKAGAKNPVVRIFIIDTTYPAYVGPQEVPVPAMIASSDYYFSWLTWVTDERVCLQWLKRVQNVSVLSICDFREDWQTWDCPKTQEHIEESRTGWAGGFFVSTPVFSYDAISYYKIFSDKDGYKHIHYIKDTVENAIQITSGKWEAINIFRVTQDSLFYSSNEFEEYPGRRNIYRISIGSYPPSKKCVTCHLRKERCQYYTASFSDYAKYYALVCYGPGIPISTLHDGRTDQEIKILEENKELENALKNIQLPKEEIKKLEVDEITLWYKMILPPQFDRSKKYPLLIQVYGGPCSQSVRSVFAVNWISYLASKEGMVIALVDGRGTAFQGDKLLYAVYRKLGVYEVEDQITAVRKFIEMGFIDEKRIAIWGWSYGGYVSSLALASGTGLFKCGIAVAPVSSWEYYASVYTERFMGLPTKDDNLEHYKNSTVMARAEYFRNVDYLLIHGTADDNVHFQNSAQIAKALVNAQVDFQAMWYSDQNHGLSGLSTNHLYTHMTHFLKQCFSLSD

[7] = Metabolic stability in rat hepatocytes (rHep); details: n = 1 or geometric mean of n = 2-3
[8] = target: hFAP (M39-A757) (Homo sapiens (Human), UniProt Q12884); assay: hFAP binding assay (surface plasmon resonance); details: SPR, 20° C.; for hFAP Binding assay k(off) / hFAP Binding assay k(on): single cycle kinetics; for Kd: n = 1 or geometric mean n = 2-4
Sequence of hFAP (M39-A757) (Q12884 39-757): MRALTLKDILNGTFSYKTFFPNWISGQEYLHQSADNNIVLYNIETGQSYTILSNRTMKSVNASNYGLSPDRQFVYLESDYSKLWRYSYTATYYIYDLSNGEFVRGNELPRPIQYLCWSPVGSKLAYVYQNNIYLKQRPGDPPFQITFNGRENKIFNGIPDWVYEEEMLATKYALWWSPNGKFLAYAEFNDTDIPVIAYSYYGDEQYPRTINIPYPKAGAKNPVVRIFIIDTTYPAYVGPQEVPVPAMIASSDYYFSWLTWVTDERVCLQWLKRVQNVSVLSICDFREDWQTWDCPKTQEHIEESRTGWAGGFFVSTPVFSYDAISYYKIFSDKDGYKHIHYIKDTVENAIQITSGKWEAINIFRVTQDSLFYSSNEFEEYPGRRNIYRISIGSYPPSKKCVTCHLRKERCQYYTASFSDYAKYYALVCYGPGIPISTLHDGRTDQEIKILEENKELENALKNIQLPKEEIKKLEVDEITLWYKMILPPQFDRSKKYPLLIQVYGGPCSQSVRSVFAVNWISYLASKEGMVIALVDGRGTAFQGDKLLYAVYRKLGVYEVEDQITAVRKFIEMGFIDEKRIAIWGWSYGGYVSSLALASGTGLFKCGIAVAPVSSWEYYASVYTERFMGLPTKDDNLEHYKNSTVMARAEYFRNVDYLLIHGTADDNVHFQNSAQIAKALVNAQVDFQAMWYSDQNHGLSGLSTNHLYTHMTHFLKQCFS
Description: Compounds were tested in a direct binding assay using 8K surface plasmon resonance biosensor (GE Healthcare) at 20° C. Immobilization of hFAP (M39-A757) on a CMD200M sensor chip (Xantec) was performed using standard amine coupling procedure in immobilization buffer (10 mM HEPES, 150 mM NaCl, 0.05% Tween20, pH 7.4). The surface was washed with 10 mM NaOH, 1M NaCl before being activated with EDC/NHS (GE Healthcare), followed by immobilization of hFAP (in 10 mM Acetate pH 5.0). Finally, the surface was deactivated by ethanolamine. Immobilization levels of hFAP were around 4000-6000 RU. The reference spot was treated as described, omitting the injection of hFAP. Compound concentration series were injected over the immobilized protein in increasing concentrations (2-500 nM) using single cycle kinetics in running buffer (20 mM TRIS, 150 mM NaCl, 0.05% Tween20, 1% DMSO, pH 7.4). Interaction models were fitted globally to the experimental traces, enabling determination of kon, koff and Kd.

[9] = Kinetic solubility; details: kinetic from dmso stock
Description: Kinetic solubility was measured as described in Comput Aided Mol Des 2015, 29, 795.

[10] = Metabolic stability in human hepatocytes (hHep); format: in vitro ADME; details: n = 1 or geometric mean of n = 2
[11] = target: T1, FAP; assay: hFAP inhibition assay; format: biochemical; details: hFAP […], Ala-Pro-AMC 20 μM; n = 1 or geometric mean n = 2-3
Summary of the method: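 Human FAP (0.48 nM) in 100 mM Tris HCl, 100 mM NaCl, 0.05% Chaps, pH 7.4 was preincubated 15 min at rt in the dark with compounds (10-point, 3-fold series from 50 μM). Substrate was added from a 40 μM solution, then 30 min at rt. Fluorescence read at ex 340/em 460 nm; IC50 from one-site dose-response fit of % inhibition.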
Target sequence in this assay (Q12884 38-760): as the sequence (Q12884 38-760) above

[12] = HLM CLint, n = 1 or average of n = 2-3
[13] = Solubility, kinetic solubility, n = 1 or average of n = 2-3

microsomal CLint [1, 12] [µL/min/mg]	IC50 [2] [nM]	Papp A→B [3] [×10⁻⁶ cm/s]	Papp B→A [3] [×10⁻⁶ cm/s]	efflux ratio [3]	IC50 [4] [nM]	IC50 [5] [nM]	IC50 [6] [nM]	rHep CLint [7] [μL/min/1E6]	hFAP Binding assay k(off) [8] [s⁻¹]	hFAP Binding assay k(on) [8] [M⁻¹ s⁻¹]	Kd [8] [nM]	solubility [9, 13] [µM]	hHep CLint [10] [μL/min/1E6]	IC50 [11] [nM]	Structure (SMILES)	microsomal CLint [1] [µL/min/mg]	Papp [3] [×10⁻⁶ cm/s]	solubility [9] [µM]
< 3	1200	0.4	4.8	12	1.4	0.39	0.9	1.8	0.000061	190000	0.33	830 (≈ 366 µg/mL)	–	–	CN1CCC(F)(c2ccc3nccc(C(=O)NCC(=O)N4CSC[C@H]4C#N)c3c2)CC1 [Example 195, (R)—N-(2-(4-Cyanothiazolidin-3-yl)-2-oxoethyl)-6-(4-fluoro-1-methyl-piperidin-4-yl)quinoline-4-carboxamide]	–	–	–
17	570	2.7	40	15	0.2	0.067	0.1	2.9	0.00012	2800000	0.045	40 (≈ 17.8 µg/mL)	–	–	CC(F)(F)C1CN(c2ccc3nccc(C(=O)NCC(=O)N4CSC[C@H]4C#N)c3c2)C1 [Example 147, (R)—N-(2-(4-Cyanothiazolidin-3-yl)-2-oxoethyl)-6-(3-(1,1-difluoroethyl)-azetidin-1-yl)quinoline-4-carboxamide]	–	–	–
7.3	1200	2	29	15	0.6	0.37	0.3	<1	0.00012	1900000	0.065	62 (≈ 26.8 µg/mL)	<1	–	N#C[C@@H]1CSCN1C(=O)CNC(=O)c1ccnc2ccc(N3CC(F)(CF)C3)cc12 [Example 157, (R)—N-(2-(4-Cyanothiazolidin-3-yl)-2-oxoethyl)-6-(3-fluoro-3-(fluoromethyl)azetidin-1-yl)quinoline-4-carboxamide]	–	–	–
8	920	0.44	8.5	19	0.3	0.067	0.2	1.8	0.000058	850000	0.068	480 (≈ 210 µg/mL)	–	–	C[C@@H]1CCCN(c2ccc3nccc(C(=O)NCC(=O)N4CSC[C@H]4C#N)c3c2)C1=O (single isomer, unassigned) [Example 204, N-(2-((R)-4-Cyanothiazolidin-3-yl)-2-oxoethyl)-6-((R*)-3-methyl-2-oxopiperidin-1-yl)quinoline-4-carboxamide]	–	–	–
12	3500	0.4	8	20	0.5	0.26	0.4	2.9	0.000063	440000	0.15	540 (≈ 236 µg/mL)	–	–	C[C@H]1CCCN(c2ccc3nccc(C(=O)NCC(=O)N4CSC[C@H]4C#N)c3c2)C1=O (single isomer, unassigned) [Example 203, N-(2-((R)-4-Cyanothiazolidin-3-yl)-2-oxoethyl)-6-((R*)-3-methyl-2-oxopiperidin-1-yl)quinoline-4-carboxamide]	–	–	–
3.1	430	0.18	3.7	21	–	0.19	–	1.8	0.000022	2600000	0.011	990 (≈ 483 µg/mL)	<1	0.28	CC1(CS(C)(=O)=O)CN(c2ccc3nccc(C(=O)NCC(=O)N4CSC[C@H]4C#N)c3c2)C1 [Example 188, (R)—N-(2-(4-Cyanothiazolidin-3-yl)-2-oxoethyl)-6-(3-methyl-3-((methylsulfonyl)methyl)azetidin-1-yl)quinoline-4-carboxamide]	–	0.28	–
< 3	1600	0.16	4.2	26	0.4	0.11	0.2	<1	0.000041	740000	0.054	170 (≈ 77.1 µg/mL)	–	–	CC1(C)OCCN(c2ccc3nccc(C(=O)NCC(=O)N4CSC[C@H]4C#N)c3c2)C1=O [Example 16, (R)—N-(2-(4-Cyanothiazolidin-3-yl)-2-oxoethyl)-6-(2,2-dimethyl-3-oxomorpholino)quinoline-4-carboxamide]	–	–	–
40	450	8.7	28	3.3	–	0.16	–	19	0.000029	1300000	0.022	240 (≈ 98.3 µg/mL)	4.1	0.3	N#C[C@@H]1CSCN1C(=O)CNC(=O)c1ccnc2ccc(N3CCCCC3)cc12 [Example 32, (R)—N-(2-(4-Cyanothiazolidin-3-yl)-2-oxoethyl)-6-(piperidin-1-yl)quinoline-4-carboxamide]	–	–	–
16	120	–	–	–	0.1	0.042	0.1	7.2	0.00017	3100000	0.053	6 (≈ 2.6 µg/mL)	–	0.2	COc1ccc(-c2ccc3nccc(C(=O)NCC(=O)N4CSC[C@H]4C#N)c3c2)cn1 [Example 178, (R)—N-(2-(4-Cyanothiazolidin-3-yl)-2-oxoethyl)-6-(6-methoxypyridin-3-yl)quinoline-4-carboxamide]	–	–	–
12	87	0.54	25	46	0.4	0.26	0.2	7.2	0.00024	1900000	0.13	800 (≈ 325 µg/mL)	–	0.44	Cn1nccc1-c1ccc2nccc(C(=O)NCC(=O)N3CSC[C@H]3C#N)c2c1 [Example 174, (R)—N-(2-(4-Cyanothiazolidin-3-yl)-2-oxoethyl)-6-(1-methyl-1H-pyrazol-5-yl)quinoline-4-carboxamide]	–	–	–

Structure (SMILES)	microsomal CLint [1, 12] [µL/min/mg]	IC50 [2] [nM]	Papp A→B [3] [×10⁻⁶ cm/s]	Papp B→A [3] [×10⁻⁶ cm/s]	efflux ratio [3]	IC50 [4] [nM]	IC50 [5] [nM]	IC50 [6] [nM]	rHep CLint [7] [μL/min/1E6]	hFAP Binding assay k(off) [8] [s⁻¹]	hFAP Binding assay k(on) [8] [M⁻¹ s⁻¹]	Kd [8] [nM]	solubility [9, 13] [µM]	hHep CLint [10] [μL/min/1E6]	IC50 [11] [nM]	microsomal CLint [1] [µL/min/mg]	Papp [3] [×10⁻⁶ cm/s]	solubility [9] [µM]
CC1(C)COC12CN(c1ccc3nccc(C(=O)NCC(=O)N4CSC[C@H]4C#N)c3c1)C2 [Example 18, (R)—N-(2-(4-Cyanothiazolidin-3-yl)-2-oxoethyl)-6-(3,3-dimethyl-1-oxa-6-azaspiro[3.3]heptan-6-yl)quinoline-4-carboxamide]	–	570	0.9	31	34	–	0.047	–	6	0.000059	1400000	0.068	–	3.7	0.19	22	13	93 (≈ 42 µg/mL)
